Test results published in paper PMC5794004 (Bioorganic & medicinal chemistry, 2017).
pKi: −log10 of the molar value.

Assays:
hCB2 receptors = hCB2 receptors (Homo sapiens, UniProt P34972); assay: CB2 receptor radioligand binding, [3H]CP55,940, CHO-K1 hCB2 membranes; settings: for interaction with CB2R: up to 100 μM
MAGL = target: T1, MAGL (Homo sapiens, UniProt Q99685); assay: MAGL activity assay, U937 cell homogenate; type: biochemical
T1 sequence (Q99685 1-303): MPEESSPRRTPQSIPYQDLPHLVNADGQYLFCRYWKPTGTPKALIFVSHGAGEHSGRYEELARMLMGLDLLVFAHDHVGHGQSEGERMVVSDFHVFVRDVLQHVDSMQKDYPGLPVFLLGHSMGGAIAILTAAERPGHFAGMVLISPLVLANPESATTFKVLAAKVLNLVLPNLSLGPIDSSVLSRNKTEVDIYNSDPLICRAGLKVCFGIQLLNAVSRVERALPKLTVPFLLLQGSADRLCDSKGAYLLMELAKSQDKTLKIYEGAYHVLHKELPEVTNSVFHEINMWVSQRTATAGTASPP

AEA uptake = AEA uptake assay, intact U937 cells; type: cell-based
[1] = acute feeding model; cited from earlier work
hCB1R = hCB1R (Homo sapiens, UniProt P21554); assay: CB1 receptor radioligand binding, [3H]CP55,940, CHO-K1 hCB1R membranes; settings: for increase of [3H]CP55,940 binding at CB1R: maximal increase over vehicle
Chain of hCB1R (P21554 whole entry): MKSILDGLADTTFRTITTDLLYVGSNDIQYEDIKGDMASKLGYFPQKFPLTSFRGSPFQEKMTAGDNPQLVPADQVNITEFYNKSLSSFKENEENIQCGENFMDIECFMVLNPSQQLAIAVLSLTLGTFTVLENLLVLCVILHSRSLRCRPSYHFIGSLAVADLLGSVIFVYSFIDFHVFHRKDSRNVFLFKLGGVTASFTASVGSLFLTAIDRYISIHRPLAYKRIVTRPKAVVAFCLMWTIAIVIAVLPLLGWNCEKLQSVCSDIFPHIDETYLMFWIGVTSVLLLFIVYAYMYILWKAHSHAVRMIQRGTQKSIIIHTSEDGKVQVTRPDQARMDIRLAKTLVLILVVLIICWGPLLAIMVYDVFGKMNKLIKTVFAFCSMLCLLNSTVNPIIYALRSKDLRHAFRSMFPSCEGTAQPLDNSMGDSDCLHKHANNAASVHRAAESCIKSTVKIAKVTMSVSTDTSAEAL

Chain of hCB2 receptors (P34972 whole entry): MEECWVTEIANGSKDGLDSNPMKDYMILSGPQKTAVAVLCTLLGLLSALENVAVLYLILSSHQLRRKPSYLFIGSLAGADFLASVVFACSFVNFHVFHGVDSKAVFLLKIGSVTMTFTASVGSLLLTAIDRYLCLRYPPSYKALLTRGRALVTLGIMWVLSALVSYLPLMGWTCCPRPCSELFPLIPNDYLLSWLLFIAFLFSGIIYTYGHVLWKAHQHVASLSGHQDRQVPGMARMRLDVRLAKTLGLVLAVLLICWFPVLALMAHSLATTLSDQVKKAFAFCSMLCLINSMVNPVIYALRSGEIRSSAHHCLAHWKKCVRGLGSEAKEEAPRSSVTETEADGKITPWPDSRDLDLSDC

O=C(Nc1ccc(Cl)cc1)Nc1cccc(Nc2cccc(N3CCCC3)c2)c1 [FG45a, 1-(4-Chlorophenyl)-3-(3-{[3-(pyrrolidin-1-yl)phenyl]amino}phenyl)urea]
interaction with CB2R (hCB2 receptors): did not significantly interact

O=C(Nc1ccc(Cl)cc1)Nc1cccc(-c2cccc(N3CCCC3)n2)c1 [PSNCBAM-1, 1-(4-Chlorophenyl)-3-{3-[6-(pyrrolidin-1-yl)pyridin-2-yl]phenyl}urea]
binding to CB2R (hCB2 receptors; up to 10 μM): did not show any significant binding | MAGL result in words (MAGL): negative | AEA cell uptake result in words (AEA uptake): negative | food intake and body weight [1]: decrease food intake and body weight | increase of [3H]CP55,940 binding at CB1R (hCB1R): 15–20%

O=C(Nc1ccc(Cl)cc1)Nc1cccc(-c2cccc(N3CCCC3)c2)c1 [SC4a, 1-(4-Chlorophenyl)-3-[3′-(pyrrolidin-1-yl)biphenyl-3-yl]urea]
increase of [3H]CP55,940 binding at CB1R (hCB1R): 15–20%

O=C(Cc1ccc(Cl)cc1)Nc1cccc(-c2cccc(N3CCCC3)c2)c1 [SC33, 2-(4-Chlorophenyl)-N-[3′-(pyrrolidin-1-yl)biphenyl-3-yl]acetamide]
pKi (hCB2 receptors): ~4.30 | binding to CB1R (hCB1R; at 100 μM): approx. 10% | influence on [3H]CP55,940 binding to CB1R (hCB1R; up to 10 μM): does not influence

O=C(Nc1ccc(Cl)cc1)Nc1cccc(Nc2cccc(N3CCCC3)n2)c1 [SN15b]
interaction with CB2R (hCB2 receptors): did not significantly interact
